The series is described as follows: xn = mol fraction of the nth substance listed. Particulars: 298.15 K, 101 kPa, Liquid, Taylor dispersion method.

In the case of `C[N+](C)(C)CCCCCCCCCCCC[N+](C)(C)C.[Br-].[Br-]` + O, the binary diffusion coefficient by setting is: (x1 = 0) 1.01e-09 m2/s; (x1 = 0.00119) 9.72e-10 m2/s; (x1 = 0.00475) 9.45e-10 m2/s; (x1 = 0.0095) 9.11e-10 m2/s; (x1 = 0.019) 8.7e-10 m2/s; (x1 = 0.038) 8.05e-10 m2/s.

Turning to `C[N+](C)(C)CCCCCCCCCC[N+](C)(C)C.[Br-].[Br-]` [decamethonium bromide] + O, the binary diffusion coefficient came out at 1.06e-09 m2/s (x1 = 0); 9.9e-10 m2/s (x1 = 0.00119); 9.55e-10 m2/s (x1 = 0.00475); 9.04e-10 m2/s (x1 = 0.0095); 8.61e-10 m2/s (x1 = 0.019); 8.43e-10 m2/s (x1 = 0.038).

These data come from the NIST ThermoML archive (doi:10.1016/j.jct.2012.02.004).
